Source: patent US20260293949A1, “CARBONATION SENSATION IMPARTING OR ENHANCING AGENT” (TAKASAGO INTERNATIONAL CORPORATION, priority 2022, published 2026)

Assay: Sensory evaluation of fizziness enhancement in carbonated water (WILKINSON TANSAN), specialized panelists
Format: in vivo
Conditions: for Fizziness enhancement evaluation result: average score of seven panelists
Experimental: In the following Examples, the action and effect were verified using a value obtained by calculating an average score of scores for imparting or enhancing fizziness by sensory evaluation conducted by specialized panelists. The expression “1 point” in the evaluation is the evaluation in the case where no component is added at all (no addition).
Diethyl sebacate (manufactured by Inoue Perfumery Mfg. Co., Ltd., the same applies to the following Examples) was separately added to “WILKINSON (registered trademark) TANSAN (manufactured by Asahi Soft Drinks Co., Ltd.)” so as to reach the concentrations shown in Table 2 below, and sensory evaluation was performed by seven specialized panelists to determine the extent to which fizziness was enhanced as compared with a control in which diethyl sebacate was not added.
Diisobutyl adipate (manufactured by Inoue Perfumery Mfg. Co., Ltd., the same applies to the following Examples) was separately added to “WILKINSON (registered trademark) TANSAN (manufactured by Asahi Soft Drinks Co., Ltd.)” so as to reach the concentrations shown in Table 3 below, and sensory evaluation was performed by seven specialized panelists to determine the extent to which fizziness was enhanced as compared with a control in which diisobutyl adipate was not added.
Dimethyl sebacate (manufactured by Tokyo Chemical Industry Co., Ltd.) was separately added to “WILKINSON (registered trademark) TANSAN (manufactured by Asahi Soft Drinks Co., Ltd.)” so as to reach the concentrations shown in Table 4 below, and sensory evaluation was performed by seven specialized panelists to determine the extent to which fizziness was enhanced as compared with a control in which dimethyl sebacate was not added.
Dipropyl adipate (manufactured by Tokyo Chemical Industry Co., Ltd.) was separately added to “WILKINSON (registered trademark) TANSAN (manufactured by Asahi Soft Drinks Co., Ltd.)” so as to reach the concentrations shown in Table 5 below, and sensory evaluation was performed by seven specialized panelists to determine the extent to which fizziness was enhanced as compared with a control in which dipropyl adipate was not added.

Structure (SMILES)	amelioration of mouthfeel (in words)	fizziness enhancement (in words)	Fizziness enhancement evaluation result (0.1 ppm, 1 to 5)	Fizziness enhancement evaluation result (0.5 ppm, 1 to 5)	Fizziness enhancement evaluation result (1 ppm, 1 to 5)	Fizziness enhancement evaluation result (5 ppm, 1 to 5)	Fizziness enhancement evaluation result (10 ppm, 1 to 5)	Fizziness enhancement evaluation result (20 ppm, 1 to 5)	Fizziness enhancement evaluation result (50 ppm, 1 to 5)	Fizziness enhancement evaluation result (100 ppm, 1 to 5)	Fizziness enhancement evaluation result (0.005 ppm, 1 (not enhanced) to 5 (extremely enhanced))	Fizziness enhancement evaluation result (0.01 ppm, 1 to 5)
COC(=O)CCCCCCCCC(=O)OC [Dimethyl sebacate, dimethyl sebacate]	effect of ameliorating the mouthfeel was also confirmed	fizziness of carbonated water can be enhanced	1.1 points	1.6 points	2.0 points	2.4 points	3.1 points	2.6 points	1.4 points	1.3 points	–	–
CCCOC(=O)CCCCC(=O)OCCC [Dipropyl adipate, dipropyl adipate]	effect of ameliorating the mouthfeel was also confirmed	fizziness of carbonated water can be enhanced	1.1 points	1.4 points	1.9 points	2.6 points	3.0 points	1.7 points	1.4 points	1.1 points	–	–
CC(C)COC(=O)CCCCC(=O)OCC(C)C [Diisobutyl adipate, diisobutyl adipate]	effect of ameliorating the mouthfeel was also confirmed	fizziness of carbonated water can be enhanced	3.4 points	3.6 points	3.4 points	1.7 points	1.3 points	–	–	–	1.1 points	1.6 points
